Test [1] concerns Karpas 422 cells (EZH2 Y641N). In words: Karpas 422 cell viability (Cell Titre Glo). Conditions: Day 4, Day 7 or Day 11 (time point not given), read-out: IC50 (nM), Inhibiting Proliferation of Cells Expressing an Activating Mutant Form of EZH2. The test is classed as cell-based, human. The protocol: Karpas 422 cell line is a human B cell non-Hodgkin's lymphoma cell line established from a patient having DLBCL. This EZH2 heterozygotic cell line expresses a mutant form of EZH2 enzyme (Y641N) that increases histone H3 methylation and this mutation has been implicated in the tumorgenesis of lymphomas, such as DLBCL.
Karpas 422 cells (PHE cat no.,06101702) were cultured in RPMI medium supplemented with 20% fetal bovine serum and 1% penicillin/1% streptomycin and plated at a density of 1000 cells/90 μl/well in 96 well white assay plates. A dose response curve for compounds of the present invention was determined by adding a 10 μl aliquot of stock solutions of varying concentrations of compounds to the same medium in each well, over a concentration range of 10 μM using 3-fold dilutions to a final concentration of 1.5 nM. The plates were incubated at 37° C. for predetermined time periods, Day 4, Day 7, or Day 11, and the viability of the cells was measured using a CTG assay kit (Cell Titre Glo; Promega cat. no G7573) on Day 4 and Day 7 in accordance with the manufacturer's instructions.
For the viability assay for the Day 11 plates, the plates were subjected to centrifugation at 1100 rpm for five minutes on Day 7 and the supernatant was removed by aspiration. The cells were resuspended in 90 μl aliquot of the appropriate growth medium lacking the compound followed by addition of 10 μl of a 10× stock of the same compound at the same concentration. The viability of the Day 11 cells was measured using the CTG assay kit described above in accordance with the manufacturer's instructions. The IC50 values for each compound at each predetermined time point were calculated using Graph pad PRISM software and the results are shown in Table 15. A=≤250 nM; B=<250 nM-≤500 nM; and C=>500 nM.

Test [2] deals with PRC2-mediated histone H3 Lys27 trimethylation in Pfeiffer cells (EZH2 A677G). In words: Tri-Methyl Histone H3 (Lys 27) sandwich ELISA in Pfeiffer cells. The test is classed as cell-based, human. Conditions: 96 hours incubation, read-out: IC50 (nM), Inhibition of EZH2-mediated Histone H3 Trimethylation. An excerpt: The Pfeiffer cell line was established from a […] from a patient having metastatic diffuse large B-cell lymphoma (DLBCL). This cell line expresses a mutant form of the EZH2 enzyme (A677G) that results in enhanced EZH2 activity leading to increased methylation of histone H3 Lys27. Increased trimethylation of histone H3 Lys27 is believed to be implicated in tumorgenesis and poor clinical prognosis in lymphomas (McCabe et al., (2012) Nature 492:108-112).
Inhibition of PRC2-mediated histone H3 methylation by compounds of Formula (I) was measured by ELISA using a Tri-Methyl Histone H3 (Lys 27) Sandwich ELISA Kit (Cell Signaling Tech #7866C) in accordance with the manufacturer's instructions. Briefly, Pfeiffer cells were cultured in RPMI medium supplemented with 10% fetal bovine serum and 1% penicillin and 1% streptomycin in 96 well culture plates at 37° C. to a density of 8000 cells/90 μl/well and the cells were harvested. A series of 3-fold serial dilutions of each test compound of Formula (I) were prepared in RPMI medium and added to the cells at final concentrations ranging from 1 μM to 0.15 nM. The plates were incubated at 37° C. for 96 hours.
After incubation, the cells were pelleted by centrifugation in a pre-cooled 4° C. rotor at 1,100 rpm for 10 min and the supernatant was removed by aspiration. The cell pellet was resuspended in 55 μl of Lysis Buffer (0.4M HCl) and incubated on ice with periodic shaking for 30 minutes. The lysed cells were subjected to centrifugation at 4,200 rpm for 10 min at 4° C. and the supernatant containing acid-soluble proteins was collected and the remainder discarded. The acid-soluble proteins were brought to a neutral pH by the addition of 20 μl of Neutralization Buffer (1 M Sodium phosphate, dibasic (pH 12.5), 2.5 mM DTT and 1 mM PMSF) and the neutralized lysates were analyzed by ELISA.
A 65 μl aliquot of each cell lysate was added to a well of a microwell strip, the microwells were sealed using tape and incubated either at 37° C. for two hours or at 4° C. overnight. After incubation, the tape was removed at the microwells were washed four times using 200 μl of 1× Wash Buffer. To each washed microwell, a 100 μl aliquot of an anti-trimethyl histone H3 Lys27 Detection Antibody solution was added and the microwells were incubated at 37° C. for one hour. […]
A 100 μl aliquot of an HRP-linked secondary antibody was added to each well, the wells were sealed with tape and incubated at 37° C. for 30 min. […] The degree of histone H3 trimethylation was determined using a spectrophotometric readout by measuring the absorbance at 450 nm and then calculating the amount of trimethylated histone H3. A=≤100 nM; B=>100 nM-≤500 nM; C=>500 nM and N.D.=not determined.

Test [3] deals with purified human, His-tagged PRC2 complex (Homo sapiens (Human), UniProt O75530). The test is described as follows: Hot Spot HMT assay of PRC2 enzymatic activity. Format: biochemical. Conditions: 10 nM PRC2 complex, core histone H3, 1 uM 3H-SAM, 1 hr at 30° C; read-out: IC50, Inhibition of PRC2-mediated Enzymatic Activity.
purified human, His-tagged PRC2 complex, sequence (Q15910 whole entry): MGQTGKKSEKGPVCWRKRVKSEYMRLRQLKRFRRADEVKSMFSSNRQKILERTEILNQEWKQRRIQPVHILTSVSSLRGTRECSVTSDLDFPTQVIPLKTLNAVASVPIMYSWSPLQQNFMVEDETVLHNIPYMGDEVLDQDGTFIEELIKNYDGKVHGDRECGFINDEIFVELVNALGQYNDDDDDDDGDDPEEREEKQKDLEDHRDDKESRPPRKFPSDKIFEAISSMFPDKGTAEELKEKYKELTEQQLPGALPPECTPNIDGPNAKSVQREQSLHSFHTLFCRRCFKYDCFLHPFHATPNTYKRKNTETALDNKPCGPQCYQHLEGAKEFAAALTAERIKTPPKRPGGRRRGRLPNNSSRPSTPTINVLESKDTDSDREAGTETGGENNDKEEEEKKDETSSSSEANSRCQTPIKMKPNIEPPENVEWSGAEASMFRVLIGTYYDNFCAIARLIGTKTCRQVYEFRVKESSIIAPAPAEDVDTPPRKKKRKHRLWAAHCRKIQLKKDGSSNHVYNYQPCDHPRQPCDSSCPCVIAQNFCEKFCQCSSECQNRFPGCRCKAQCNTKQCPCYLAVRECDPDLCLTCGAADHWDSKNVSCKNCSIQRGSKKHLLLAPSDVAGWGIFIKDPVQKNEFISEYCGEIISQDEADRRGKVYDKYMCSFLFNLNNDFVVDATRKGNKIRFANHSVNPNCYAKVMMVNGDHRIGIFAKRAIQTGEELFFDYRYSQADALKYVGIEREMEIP
purified human, His-tagged PRC2 complex, sequence (O75530 whole entry): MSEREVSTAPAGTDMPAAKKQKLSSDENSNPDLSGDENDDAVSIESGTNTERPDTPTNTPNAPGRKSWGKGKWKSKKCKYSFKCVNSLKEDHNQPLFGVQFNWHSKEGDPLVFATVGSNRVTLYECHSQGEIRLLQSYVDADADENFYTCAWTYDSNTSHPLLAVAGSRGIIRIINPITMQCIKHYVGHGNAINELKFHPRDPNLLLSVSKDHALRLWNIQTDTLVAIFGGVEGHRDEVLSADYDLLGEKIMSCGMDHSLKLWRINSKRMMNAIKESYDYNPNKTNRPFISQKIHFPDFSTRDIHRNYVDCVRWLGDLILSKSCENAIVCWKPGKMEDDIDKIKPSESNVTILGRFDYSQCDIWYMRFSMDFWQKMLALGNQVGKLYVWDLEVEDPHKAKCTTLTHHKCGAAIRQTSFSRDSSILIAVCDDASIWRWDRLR
purified human, His-tagged PRC2 complex, sequence (Q15022 whole entry partner): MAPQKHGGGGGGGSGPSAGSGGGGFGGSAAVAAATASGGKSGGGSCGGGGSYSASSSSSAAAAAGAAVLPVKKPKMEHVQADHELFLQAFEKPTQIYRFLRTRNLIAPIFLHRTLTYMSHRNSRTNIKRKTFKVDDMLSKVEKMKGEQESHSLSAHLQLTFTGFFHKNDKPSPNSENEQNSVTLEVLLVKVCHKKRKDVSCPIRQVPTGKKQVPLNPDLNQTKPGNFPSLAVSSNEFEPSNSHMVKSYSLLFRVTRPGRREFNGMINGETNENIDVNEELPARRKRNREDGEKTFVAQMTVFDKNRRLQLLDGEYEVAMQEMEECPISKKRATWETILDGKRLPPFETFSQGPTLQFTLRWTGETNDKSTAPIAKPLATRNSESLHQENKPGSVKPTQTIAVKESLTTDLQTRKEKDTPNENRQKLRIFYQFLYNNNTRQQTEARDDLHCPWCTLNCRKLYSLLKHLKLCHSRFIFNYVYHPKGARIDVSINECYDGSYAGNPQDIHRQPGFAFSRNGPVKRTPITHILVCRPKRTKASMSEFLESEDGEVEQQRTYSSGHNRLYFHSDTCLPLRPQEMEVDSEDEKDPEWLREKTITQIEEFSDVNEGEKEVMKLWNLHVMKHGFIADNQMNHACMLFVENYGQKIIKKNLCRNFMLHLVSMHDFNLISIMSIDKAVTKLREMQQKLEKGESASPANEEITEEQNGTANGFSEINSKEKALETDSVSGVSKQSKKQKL
purified human, His-tagged PRC2 complex, sequence (Q6ZN18 whole entry partner): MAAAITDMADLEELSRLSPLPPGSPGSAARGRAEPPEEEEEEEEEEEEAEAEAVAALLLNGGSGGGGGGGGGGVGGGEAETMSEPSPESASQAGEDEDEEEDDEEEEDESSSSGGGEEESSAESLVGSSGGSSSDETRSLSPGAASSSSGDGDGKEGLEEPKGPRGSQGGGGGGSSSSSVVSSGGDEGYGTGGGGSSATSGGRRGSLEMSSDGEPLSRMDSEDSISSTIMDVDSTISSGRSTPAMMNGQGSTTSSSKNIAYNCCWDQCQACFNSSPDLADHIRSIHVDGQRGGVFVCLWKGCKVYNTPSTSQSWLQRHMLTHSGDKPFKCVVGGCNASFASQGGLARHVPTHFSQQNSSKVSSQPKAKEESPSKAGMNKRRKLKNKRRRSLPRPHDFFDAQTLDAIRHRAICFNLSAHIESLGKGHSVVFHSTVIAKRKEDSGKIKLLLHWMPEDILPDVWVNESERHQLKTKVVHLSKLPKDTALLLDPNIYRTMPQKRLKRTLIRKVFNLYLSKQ
purified human, His-tagged PRC2 complex, sequence (Q09028 whole entry partner): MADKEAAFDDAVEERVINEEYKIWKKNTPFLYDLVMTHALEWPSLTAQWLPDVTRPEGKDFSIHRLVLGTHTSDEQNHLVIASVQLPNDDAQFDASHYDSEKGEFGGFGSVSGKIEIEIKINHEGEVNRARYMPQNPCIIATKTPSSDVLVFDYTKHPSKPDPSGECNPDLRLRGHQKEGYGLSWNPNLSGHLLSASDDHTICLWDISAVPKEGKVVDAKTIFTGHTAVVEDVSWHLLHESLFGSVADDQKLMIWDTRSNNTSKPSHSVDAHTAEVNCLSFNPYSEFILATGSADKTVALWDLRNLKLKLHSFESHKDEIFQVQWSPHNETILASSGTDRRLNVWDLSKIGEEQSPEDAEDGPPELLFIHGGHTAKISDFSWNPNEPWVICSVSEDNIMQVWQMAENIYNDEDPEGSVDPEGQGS
Source text: The assay uses purified human, His-tagged PRC2 complex, including N-terminal His-tagged EZH2 enzyme, N-terminal Flag-tagged embryonic ectoderm development protein (EED), N-terminal His-tagged suppressor of zeste 12 (SUZ12), N-terminal His-tagged AEBP2, and N-terminal His-tagged RbAp48. In this assay, the transfer of the tritiated methyl group from radiolabeled S-adenosyl methionine (SAM) to purified core histone protein by EZH2 is quantitated after filtration to determine the activity of the core PRC2 complex in the presence and absence of compound.
The initial starting concentration for the serial dilutions of each compound was 1.0 μM. […] SAH (S-(5-adenosyl)-L-homocysteine) was used as a positive control for assay validation.
An aliquot of each serial dilution of test compound was added to deep 384 well plate using Acoustic Technology instrument (Echo 550, LabCyte) containing reaction buffer (50 mM Tris-HCl (pH 8.)), 0.01% Brij35, 1 mM EDTA, 1 mM DTT, 1 mM PMSF and 1% DMSO), 10 nM purified PRC2 complex and 0.05 mg/ml core histone H3 in a 5 μl volume. The reaction was mixed gently and then pre-incubated for 20 min at 30° C. […] After 1 hr, the reaction product was detected using a filter binding method and the amount of tritiated H3 core histone was quantitated using a scintillation counter.

SMILES strings stand for the structures. Read-outs that look alike come from different tables or passages of the source.

In the case of `Cc1nc(N2CCOCC2)ccc1-c1cnc(NCc2c(F)ccc3c2CCO3)n2cc(C#N)nc12` [Example 56], the IC50 was at most 250 nM in test [1] (Homo sapiens) and 100 to 500 nM in test [2] (Homo sapiens).
In the case of `N#Cc1cn2c(NCc3c(F)ccc4c3CCO4)ncc(-c3cnc(C4CC4)cn3)c2n1` [Example 70], the values for the IC50 in test [3], in test [1] (Homo sapiens) and in test [2] (Homo sapiens) were below 0.1 µM, at most 250 nM and below 100 nM, respectively.
For the molecule `CN1CCC1c1ccc(-c2cnc(NCc3c(F)ccc4c3CCO4)n3cc(C#N)nc23)cc1` (stereo not drawn) [Example 221], the IC50 is at most 250 nM in test [1] (Homo sapiens) and 100 to 500 nM in test [2] (Homo sapiens).
Regarding `N#Cc1cn2c(NCc3c(F)ccc4c3CCO4)ncc(-c3cnn(CC4CCOC4)c3)c2n1` (stereo not drawn) [compound 154], the IC50 is 250 to 500 nM in test [1] and 100 to 500 nM in test [2].
